Assay results as given in US7507860B2 (Pfizer Inc., priority 2004, dated 2009).

Columns and labels:
male C3H/HeN mice = assay: Modified telogen conversion assay (animal model for androgenetic alopecia); type: in vivo, mouse; conditions: 3 w/v % topical, twice daily for 4 weeks
Excerpt: It has been discovered that male C3H/HeN mice may be used in the telogen conversion assay, when evaluating anti-androgen test compounds. Thus, the model relates to a modification of the existing telogen conversion assay. Male C3H/HeN mice approximately 7 weeks old are utilized. These animals are also uniformly in telogen, like their female counterparts. However, once shaven, the androgens inherently present in these male mice inhibit the conversion of the hair follicles to the anagen phase. An anti-androgen will block this androgenic effect and the follicles will convert to anagen, like their female counterparts.
The compound described in Example 1 was submitted for further testing utilizing the modified telogen conversion assay, described above. The testing was carried out in the following manner.
Male C3H/HeN mice, 6 to 7 weeks old (Charles River Laboratories, Raleigh, N.C.) were used for the study. Fur was clipped from the dorsal region of the mice prior to initiation of the study. Only mice with pink skin, a visual indication of the telogen phase, were selected for inclusion in the study. […]
The treatment area was observed and graded every other day for signs of hair growth. The hair growth response was quantified by recording, for each animal, the day on which signs of hair growth first appeared over the treated area. […]

[1] = tested on: male Syrian hamsters, ear sebaceous glands; assay: Animal model for inhibition of sebum production (hamster ear, HPLC of sebum lipids); type: in vivo, Syrian hamster; conditions: 4 weeks; for % Reduction in CE (cholesterol ester) / % Reduction in WE (wax ester): 3-w/v % topical to ears twice daily, five days a week, difference from vehicle control; for Sum CE + WE: summation of % reduction in CE and WE, 3-w/v % topical
Procedure: Luderschmidt et al describes an animal model for testing whether compounds are capable of modulating sebum secretion. Arch. Derm. Res. 258, 185-191 (1977). This model uses male Syrian hamsters, whose ears contain sebaceous glands. The products of Example 1 and 4 were screened in this model.
Testing for sebum inhibition was carried out in the following manner. Male Syrian hamsters aged 9 to 10 weeks were introduced into the laboratory environment and acclimated for 2 weeks prior to use in the study. Each group consisted of 5 animals and run in parallel with vehicle and positive controls. Prior to administration, 30 mg of each compound was dissolved in 1 mL of a solvent consisting of transcutanol, ethanol, and propylene glycol (20/60/20% v/v) to achieve a final concentration of 3-w/v %.
Animals were dosed topically twice daily, five days a week, for 4 weeks. Each dose consisted of 25 micro liters of vehicle control or drug. The dose was applied to the ventral surfaces of both the right and left ears. All animals were sacrificed approximately 18-24 hours after the final dose. The right ears were collected from each animal and used for sebum analysis.
The ears were prepped for HPLC analysis in the following manner. One 8 mm distal biopsy punch was taken, just above the anatomical “V” mark in the ear to normalize the sample area. The punch was pulled apart. The ventral biopsy surface (the area where the topical dose was directly applied to the sebaceous glands) was retained for testing and the dorsal surface of the biopsy punch was discarded.
Tissue samples were blown with N2 gas and stored at −80° C. under nitrogen until HPLC analysis. In addition to ear samples, an aliquot of each drug and vehicle (at least 250 ul) was also stored at −80° C. for inclusion in the HPLC analysis.
HPLC analysis was carried out on an extract of the tissue sample. Tissue samples were contacted with 3 ml of solvent (a 4:1 admixture of 2,2,4-trimethylpentane and isopropyl alcohol). The mixture was shaken for 15 minutes and stored overnight at room temperature, protected from light. The next morning 1 milliliter of water was added to the sample and shaken for 15 minutes. The sample was then centrifuged at approximately 1500 rpm for 15 minutes. Two ml of the organic phase (top layer) was transferred to a glass vial, dried at 37° C., under nitrogen, for approximately 1 hour, and then lyophilized for approximately 48 hours. The samples were then removed from the lyophilizer and each vial was reconstituted with 600 μl of solvent A (trimethylpentane/tetrahydrofuran (99:1). The samples were then recapped and vortexed for 5 minutes.
200 μl of each sample was then transferred to a pre-labeled 200 μl HPLC vial with 200 μL glass inserts. The HPLC vials were placed in the autosampler tray for the Agilent 1100 series HPLC unit. The Agilent 1100 HPLC system consisted of a thermostated autosampler, a quarternary pump, a column heater, and an A/D interface module. All components were controlled by Agilent ChemStation software. A Waters Spherisorb S3W 4.6×100 mm analytical column was maintained at 30° C. by the Agilent column heater unit. The HPLC autosampler was programmed to maintain the sample temperature at 20 C throughout the run.
10 uL of each sample was injected in triplicate into the column. Two solvents were used for the solvent gradient. Solvent A was an admixture of trimethylpentane and tetrahydrofuran (99:1). Solvent B was ethylacetate. The gradient utilized is described in the table below: […]
The Sedex 75 Evaporative Light Scattering Detector (ELSD) was operated at 45° C. with a gain of 5, and N2 pressure maintained at 3.1 bar. Analog signal obtained by the instrument was sent to the Agilent A/D interface module where it was converted to a digital output. The conversion was based on a 10000-mAU/volt set point and the data rate was set at 10 Hz (0.03 min). The resulting digital output was then feed into the Agilent ChemStation software for integration of the peak area. […]

Compound	Induction of anagen (first signs of hair growth) versus vehicle control (male C3H/HeN mice)	% Reduction in CE (cholesterol ester) [1] [%]	% Reduction in WE (wax ester) [1] [%]	Sum CE + WE [1] [%]
CCCC(Oc1ccc(C#N)c(C(F)(F)F)c1)C(=O)NCc1ccccc1 (stereo not shown) [Example 4, 2-(4-Cyano-3-trifluoromethyl-phenoxy)-pentanoic acid benzylamide]	Anagen did not occur in the test group prior to its initiation in the vehicle control group	15	31	46
CC(C)CC(Oc1ccc(C#N)c(C(F)(F)F)c1)C(=O)NCc1ccccc1 (stereo not shown) [Example 1, 2-(4-Cyano-3-trifluoromethyl-phenoxy)-4-methyl-pentanoic acid benzylamide]	–	32	52	84
